US8080522B2, “Polyethlene glycol modifications of thymosin alpha-1” (Institute of Pharmacology and Toxicology Academy of …, priority 2005, dated 2011)

Experiments:
[1] = Half-life in liver homogenate (HPLC); assay type: in vitro ADME; conditions: 37° C., sample 0.4 mg/mL or 0.8 mg/mL, read-out: t1/2 in liver homogenate (converted)
Method: Experimental method: Prepare 0.4 mg/mL or 0.8 mg/mL sample aqueous solution in centrifuge tube, adding 50 μL liver homogenate. Then incubate for different time in 37° C. water bath. Terminate the reaction and precipitate liver homogenate protein by heating the mixture in boiling water for 5 minutes. Centrifuge it (10000 rpm) for 10 minutes. Analyze the supernatant by HPLC. The data was statistically analyzed by Origin Prof. 5.0.
HPLC: Column temperature: 25° C.; Flow rate 1.0 mL/min; Detection wavelength: 200 nm; Mobile phase A: 0.1% TFA/H2O; Mobile phase B: 0.1% TFA/70% CH3CN.

[2] = Plasma concentration / pharmacokinetics in mouse (competitive ELISA); assay type: in vivo; conditions: 300 μg per mouse, injected peritoneally, parameters in 24 h
Method: Coating antigen: Dilute Tα1 detection antigen stock solution to a final concentration of 2 μg/mL with coating solution, and add it into the wells of ELISA plate for 0.1 mL per well, and incubate at 4° C. for 5 days. Then wash the ELISA plate 3 times with washing buffer, each 0.2 mL/well and 3 min/time. Add 0.2 mL blocking buffer to each well, incubate for 1.5 hours at 37° C., wash plate 2 times by washing buffer, and spin dried.
Sample preparation: Weight sample accurately, dissolve it in saline to a concentration of 1.5 mg/mL. Administrate 0.2 Ml by injection to each mouse peritoneally. Collect blood sample in 3 min, 20 min, 40 min, 1 h, 2 h, 3 h, 6 h, 8 h, 12 h, and 24 h. Collect serum by centrifuge the blood samples for 5 minutes at 10000 rpm, stored at −20° C. in a freezer. o prepare test sample, […] was added by 0.1 mL 1:1500 rabbit anti-Tα1 serum (final concentration is 1:6000), and 0.2 mL CD-1® mouse serum, and […]. Prepare blank control at the same time. Total volume is 0.4 mL. Incubate for 2 hours at 37° C. To prepare standard sample, Tα1 0.1 mL with different concentrations from 0.0004 to 400 μg/mL was added by 0.1 mL 1:1500 rabbit anti-Tα1 serum (final concentration is 1:6000), and 0.2 mL CD-1® mouse serum. Prepare blank control at the same time. Total volume is 0.4 mL. Incubate for 2 hours at 37° C.
Sample Testing Add the prepared test sample and standard sample to ELISA plate, 0.1 mL/well, reacting for 1 hour in 37° C. chamber. Wash the plates 3 times, spin dryed. Add substrate 0.1 mL/well for 10 minutes. Add 2 mol/L H2SO4 0.05 mL to each well to terminate the reaction. Measure the OD value at 450 nm. Plot the standard curve with the concentration of Tα1 standard sample as abscissa and OD value as vertical coordinate. Calculate the content of test sample according to this standard curve.

[3] = test system: spleen cell; experiment: Interferon-γ production of spleen cells stimulated by Con A (double antibody sandwich ELISA); assay type: cell-based; conditions: Table 1-1; for Concentration of IFN-γ: Con A 0.5 μg/mL, 24 hours, n = 3; for Enhancement percentage: versus Con A alone
Method: Prepare spleen cell suspension in sterile condition. Adjust cell concentration to 5×10^6 cell/mL by adding RPMI-1640 culture with 20% bovine serum. Add 0.5 mL cell suspension, 0.25 mL Con A (final concentration is 0.5 μg/mL) and 0.25 mL samples with different concentrations in 24-well plate; and add RPMI-1640 culture in control wells. Incubate the plates in a 5% CO2 chamber at 37° C. for 24 hours. Centrifuge and collect supernatant, test the content of IFN-γ in supernatant by double antibody sandwich ELISA. The protocol is according to the instruction on ELISA kit.

[4] = test system: T lymphocyte (spleen cell); experiment: T lymphocyte proliferation stimulated by Con A (3H-TdR incorporation); assay type: cell-based, mouse; conditions: Table 2-1; for 3H-TdR incorporation (cpm, x ± SD): Con A 0.5 μg/mL, 72 hours, n = 4; for Enhancement percentage: versus Con A alone
Method: Sacrifice mouse by draining artery blood, remove spleen in sterile condition, and make it to spleen cell suspension. After red blood cell lysis, wash for 3 times, and stain with Trypan Blue to count the living cells. The amount of living cells should be more than 95%. Dilute the cell concentration to 5×10^6 cell/mL by adding RPMI-1640 culture with 10% bovine serum. Add spleen cell suspension to a sterilized 96-well plate for 100 μL per well. The total amount is 200 μL per well (including 50 μL Con A and 50 μL medicament). Each sample concentration is repeated fro 3-4 wells. Incubate the plate in a 5% CO2 chamber for 72 hours, add 10 μci/mL ^3H-TdR 20 μL per well 16 hours before termination of the incubation, giving rise to a final concentration of 1.0 μci (37.0 KBq)/mL. Collect cells on filter membrane by using Herveste 96 cell harvester, dried in 80° C. oven for 20 minutes or dried in air. Put the dried filter membrane into 1450-423 microBeta sample bag, add scintillation liquid, and measure radioactivity (cpm) in Perkin Elmer MicroBeta Trilux 1450 Scintillation Counter.

Ac-SDAAVDTSSEITTKDLKEKKEVVEEAENC-NH2 [BMJBT009]
half-life [1]: 24 min | AUC ([2]; n = 3): 2120 ng·h/mL | Cmax ([2]; serum, ip, 300 ug/animal, n = 3, read-out: Cmax): 443 ng/mL | Tmax ([2]; serum, ip, 300 ug/animal, n = 3, read-out: Tmax): 60 min | Concentration of IFN-γ ([3]; sample 1 μg/mL): 1895.7 ± 49.8 pg/mL | Enhancement percentage ([3]; sample 1 μg/mL): +152.2% | Concentration of IFN-γ ([3]; sample 10 μg/mL): 1814.5 ± 105.5 pg/mL | Enhancement percentage ([3]; sample 10 μg/mL): +141.4% | Concentration of IFN-γ ([3]; sample 100 μg/mL): 672.1 ± 94.3 pg/mL | Enhancement percentage ([3]; sample 100 μg/mL): −11.0% | 3H-TdR incorporation (cpm, x ± SD) ([4]; sample 10 μg/mL): 24888 ± 2473 cpm | Enhancement percentage ([4]; sample 10 μg/mL): +84.5% | 3H-TdR incorporation (cpm, x ± SD) ([4]; sample 50 μg/mL): 24164 ± 2683 cpm | Enhancement percentage ([4]; sample 50 μg/mL): +46.6% | 3H-TdR incorporation (cpm, x ± SD) ([4]; sample 100 μg/mL): 20574 ± 2746 cpm | Enhancement percentage ([4]; sample 100 μg/mL): +56.6%
